According to patent publication US20090239896A1, “AZAINDOLE COMPOUNDS AND USE THEREOF AS PHOSPHOLIPASE-A2 INHIBITORS” (priority 2005, published 2009):

Tests used:
Caco-2 monolayers = experiment: in-vitro Caco-2 permeability study (Example 6B); format: in vitro ADME, human
Method: The culture medium was refreshed every 48 hours.
Papp=(dQ/dt)X(1/C0)X(1/A)

stability at low pH = format: physicochemical; settings: predicted to survive passage through the stomach
mouse PLA2 IB enzyme = mouse PLA2 IB enzyme (Mus musculus, UniProt Q9Z0Y2); settings: pyrene substrate release from vesicles; Singer, Ghomashchi et al. 2002; read-out: IC50 value versus the mouse PLA2 IB enzyme; cited from earlier work
mouse PLA2 IB enzyme, sequence (Q9Z0Y2 23-146): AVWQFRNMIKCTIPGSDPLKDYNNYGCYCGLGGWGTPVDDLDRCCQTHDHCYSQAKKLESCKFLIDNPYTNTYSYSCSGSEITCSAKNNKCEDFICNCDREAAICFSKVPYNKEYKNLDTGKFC

[1] = pharmokinetic study of ILY-4001, IV and oral (Example 6C); format: in vivo, mice; settings: 30 mg/kg oral
Method: This example evaluated the bioavailability of ILY-4001 [2-(3-(2-amino-2-oxoacetyl)-1-(biphenyl-2-ylmethyl)-2-methyl-1H-indol-4-yloxy)acetic acid], alternatively referred to herein as methyl indoxam. Specifically, a pharmokinetic study was conducted to determine the fraction of unchanged ILY-4001 in systemic circulation following administration.
Bioavailability was calculated as a ratio of AUC-oral/AUC-intravenous (IV). To determine this ratio, a first set of subject animals were given a measured intravenous (IV) dose of ILY-4001, followed by a determination of ILY-4001 levels in the blood at various time points after administration (e.g., 5 minutes through 24 hours). Another second set of animals was similarly dosed using oral administration, with blood levels of ILY-4001 determined at various time points after administration (e.g., 30 minutes through 24 hours). The level of ILY-4001 in systemic circulation were determined by generally accepted methods (for example as described in Evans, G., A Handbook of Bioanalysis and Drug Metabolism. Boca Raton, CRC Press (2004)). Specifically, […]/mass spectrometry/mass spectrometry (LC/MS/MS) analytical methods were used to quantitate plasma concentrations of ILY-4001 after oral and intravenous administration. Pharmacokinetic parameters that were measured include Cmax, AUC, tmax, t1/2, and F (bioavailability). […]

human PLA2 IB enzyme = human PLA2 IB enzyme (Homo sapiens, UniProt P04054); settings: pyrene substrate release from vesicles; Singer, Ghomashchi et al. 2002; read-out: IC50 value versus the human PLA2 IB enzyme; cited from earlier work
human PLA2 IB enzyme, sequence (P04054 23-148): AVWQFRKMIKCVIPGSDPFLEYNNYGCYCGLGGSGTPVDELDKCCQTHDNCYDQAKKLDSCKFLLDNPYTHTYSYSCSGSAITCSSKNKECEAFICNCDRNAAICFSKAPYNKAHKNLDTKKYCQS

[2] = system: C57BL/6 wild-type mice on high fat/high sucrose diabetogenic diet; experiment: in-vivo evaluation in mice on high fat/high sucrose diabetogenic diet (Example 5); design: species or system mouse; settings: for fasting glucose levels: low dose (25 mg/kg/day)
Method: Briefly, four groups were set up, each having six mice. Three of the groups included six wild-type PLA2 (+/+) mice in each group (eighteen mice total), and one of the groups included six genetically deficient PLA2 (−/−) mice. One of the wild-type groups was used as a wild-type control group, and was not treated with ILY-4001. The other two wild-type groups were treated with ILY-4001—one group at a lower dose (indicated as “L” in Table 1) of 25 mg/kg/day, and the other at a higher dose (indicated as “H” in Table 1) of 90 mg/kg/day. The group comprising the PLA2 (−/−) mice was used as a positive control group.
The experimental protocol used in this study was as follows. The four groups of mice, including wild type and isogenic PLA2 (−/−) C57BL/J mice were acclimated for three days on a low fat/low carbohydrate diet. After the three day acclimation phase, the animals were ? and serum samples taken to establish baseline plasma cholesterol, triglyceride, and glucose levels, along with baseline body weight. The mice in each of the treatment groups were then fed a high fat/high sucrose diabetogenic diet (Research Diets D12331). 1000 g of the high fat/high sucrose D12331 diet was composed of casein (228 g), DL-methionine (2 g), maltodextrin 10 (170 g), sucrose (175 g), soybean oil (25 g), hydrogenated coconut oil (333.5 g), mineral mix S10001 (40 g), sodium bicarbonate (10.5 g), potassium citrate (4 g), vitamin mix V10001 (10 g), and choline bitartrate (2 g). This diet was supplemented with ILY-4001 treatments such that the average daily dose of the compound ingested by a 25 g mouse was: 0 mg/kg/day (wild-type control group and PLA2 (−/−) control group); 25 mg/kg/day (low-dose wild-type treatment group), or 90 mg/kg/day (high-dose wild-type treatment group). The animals were maintained on the high fat/high sucrose diet, with the designated ILY-4001 supplementation, for a period of ten weeks.
Body weight measurements were taken for all animals in all treatment and control groups at the beginning of the treatment period and at 4 weeks and 10 weeks after initiation of the study. (See Example 5A). Blood draws were also taken at the beginning of the treatment period (baseline) and at 4 weeks and 10 weeks after initiation of the study, in order to determine fasting glucose (See Example 5B). Cholesterol and triglyceride levels were determined from blood draws taken at the beginning of the treatment (baseline) and at ten weeks. (See Example 5C).
In the study generally described above in Example 5, body weight measurements were taken for all animals in all treatment and control groups at the beginning of the treatment period and at 4 weeks and 10 weeks after initiation of the study.
In the study generally described above in Example 5, blood draws were taken at the beginning of the treatment period (baseline) and at 4 weeks and 10 weeks after initiation of the study, in order to determine fasting glucose.
In the study generally described above in Example 5, blood draws were taken at the beginning of the treatment period (baseline) and at 10 weeks after initiation of the study, in order to determine cholesterol and triglyceride levels.

[3] = low and high doses (25 and 90 mg/kg/day), 10 weeks

Row | Compound | apparent permeability (Caco-2 monolayers; Caco-2) | stability at low pH (stability at low pH) | absorption from the GI lumen (Caco-2 monolayers; based on Caco-2 assays and pharmokinetic studies) | IC50 (mouse PLA2 IB enzyme) [nM] | level of non-absorption from the GI tract into systemic circulation [1] [%] | IC50 (human PLA2 IB enzyme) [nM] | body weight gain compared to wild-type control group ([2]; 25 mg/kg/d and 90 mg/kg/d in diet, week 4 and week 10) | plasma levels of cholesterol [2, 3] | plasma levels of triglycerides [2, 3] | fasting glucose levels ([2]; week four) | fasting glucose levels ([2]; week ten)
1 | Lucifer Yellow | around 2.82×10^−7+/−0.37×10^−7 cm/s |  |  |  |  |  |  |  |  |  | 
2 | Cc1c(C(=O)C(N)=O)c2c(OCC(=O)O)cccc2n1Cc1ccccc1-c1ccccc1 [ILY-4001, 2-(3-(2-amino-2-oxoacetyl)-1-(biphenyl-2-ylmethyl)-2-methyl-1H-indol-4-yloxy)acetic acid] |  | stable | relatively low | ~150 | ~72 | ~200 | significantly reduced | substantially reduced | substantially reduced | moderately beneficial effect | a beneficial effect was not observed
